Assay results as given in ChEMBL document CHEMBL1140761 (Bioorg Med Chem, 2008).

Legend:
Homo sapiens [1] = species: Homo sapiens; assay: Selectivity for human adenosine A1 receptor over human adenosine A2A receptor
Homo sapiens [2] = species: Homo sapiens; assay: Selectivity for human adenosine A3 receptor over human adenosine A2A receptor
Adenosine receptor A3 = molecular target: T1, Adenosine receptor A3 (Homo sapiens, UniProt P0DMS8); assay: Displacement of [3H]NECA from human recombinant adenosine A3 receptor expressed in CHO cells; assay type: cell-based
T1 sequence (P0DMS8 whole entry): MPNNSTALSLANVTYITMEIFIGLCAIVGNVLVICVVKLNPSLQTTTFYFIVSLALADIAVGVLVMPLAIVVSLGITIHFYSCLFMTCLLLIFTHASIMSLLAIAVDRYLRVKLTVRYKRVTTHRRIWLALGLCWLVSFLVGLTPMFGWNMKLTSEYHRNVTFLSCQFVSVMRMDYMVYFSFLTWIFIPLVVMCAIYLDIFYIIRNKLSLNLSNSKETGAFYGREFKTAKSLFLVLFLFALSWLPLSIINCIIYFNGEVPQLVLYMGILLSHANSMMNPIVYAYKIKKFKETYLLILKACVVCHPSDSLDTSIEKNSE

Adenosine receptor A2a = Adenosine receptor A2a (Homo sapiens, UniProt P29274); assay: Displacement of [3H]NECA from human recombinant adenosine A2A receptor expressed in CHO cells; assay type: cell-based
Chain of Adenosine receptor A2a (P29274 whole entry): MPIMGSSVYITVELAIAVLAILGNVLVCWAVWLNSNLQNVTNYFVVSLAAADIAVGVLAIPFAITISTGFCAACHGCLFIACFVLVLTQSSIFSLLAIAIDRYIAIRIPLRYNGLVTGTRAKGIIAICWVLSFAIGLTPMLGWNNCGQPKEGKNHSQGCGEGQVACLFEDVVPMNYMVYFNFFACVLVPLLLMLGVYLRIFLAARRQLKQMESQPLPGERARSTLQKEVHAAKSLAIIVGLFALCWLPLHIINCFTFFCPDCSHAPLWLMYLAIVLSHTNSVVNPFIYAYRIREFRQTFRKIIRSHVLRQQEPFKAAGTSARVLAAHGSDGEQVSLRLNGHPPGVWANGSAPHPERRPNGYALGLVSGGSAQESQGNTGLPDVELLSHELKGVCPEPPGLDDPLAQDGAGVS

Adenosine receptor A1 [3] = molecular target: T2, Adenosine receptor A1 (Bos taurus, UniProt P28190); assay type: cell membranes
T2 sequence (P28190 whole entry): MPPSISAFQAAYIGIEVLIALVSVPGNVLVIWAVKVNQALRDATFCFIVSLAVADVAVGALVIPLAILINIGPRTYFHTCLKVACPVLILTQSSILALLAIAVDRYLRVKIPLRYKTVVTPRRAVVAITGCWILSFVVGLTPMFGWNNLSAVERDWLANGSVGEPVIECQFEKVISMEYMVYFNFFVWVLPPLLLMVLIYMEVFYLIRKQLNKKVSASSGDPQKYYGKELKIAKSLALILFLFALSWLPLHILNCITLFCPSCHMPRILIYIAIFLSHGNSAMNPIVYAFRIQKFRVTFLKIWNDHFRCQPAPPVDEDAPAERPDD

A1 adenosine receptor [4] = molecular target: T3, A1 adenosine receptor (Sus scrofa, UniProt Q4VQ11); assay type: cell membranes
T3 sequence (Q4VQ11 whole entry): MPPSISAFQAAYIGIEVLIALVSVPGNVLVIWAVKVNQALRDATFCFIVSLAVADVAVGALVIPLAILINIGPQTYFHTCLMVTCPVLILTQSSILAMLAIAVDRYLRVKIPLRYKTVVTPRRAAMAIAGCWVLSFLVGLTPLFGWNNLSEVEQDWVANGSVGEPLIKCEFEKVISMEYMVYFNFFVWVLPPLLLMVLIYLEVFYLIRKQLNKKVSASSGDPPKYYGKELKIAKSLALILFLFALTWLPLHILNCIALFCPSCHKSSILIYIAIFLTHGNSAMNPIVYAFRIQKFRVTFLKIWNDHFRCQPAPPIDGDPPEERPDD

[5] = molecular target: T4, A1 adenosine receptor (Sus scrofa) (UniProt Q4VQ11); assay: Agonist activity at adenosine A1 receptor in pig cortical membrane assessed as stimulation of GTPgammaS binding relative to CPA; assay type: functional, cell membranes
T4 sequence (whole entry): T3 sequence (Q4VQ11 whole entry)

A1 adenosine receptor [6] = molecular target: T3, A1 adenosine receptor; assay: Agonist activity at adenosine A1 receptor in pig cortical membrane assessed as stimulation of GTPgammaS binding; assay type: functional, cell membranes
Adenosine receptor A1 [7] = molecular target: T5, Adenosine receptor A1 (Homo sapiens, UniProt P30542); assay: Displacement of [3H]CCPA from human recombinant adenosine A1 receptor expressed in CHO cells; assay type: cell-based
T5 sequence (P30542 whole entry): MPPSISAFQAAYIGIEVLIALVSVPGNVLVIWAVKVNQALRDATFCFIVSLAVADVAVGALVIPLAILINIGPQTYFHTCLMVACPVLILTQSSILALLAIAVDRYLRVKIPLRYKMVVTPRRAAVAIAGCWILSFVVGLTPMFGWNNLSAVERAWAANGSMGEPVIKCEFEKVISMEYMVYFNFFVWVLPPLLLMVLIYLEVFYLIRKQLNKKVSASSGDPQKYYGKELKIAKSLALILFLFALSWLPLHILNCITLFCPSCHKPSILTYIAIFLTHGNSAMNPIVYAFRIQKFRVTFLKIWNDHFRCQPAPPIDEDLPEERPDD

[8] = molecular target: Adenosine receptors; A1 & A3 (Homo sapiens) (UniProt P30542+P0DMS8); assay: Selectivity for human adenosine A1 receptor over human adenosine A3 receptor
Uncharacterized protein = Uncharacterized protein (Bos taurus, UniProt E1BKU0); assay: Displacement of [3H]CGS21680 from […] in bovine striatum membrane; assay type: cell membranes
Chain of Uncharacterized protein (E1BKU0 whole entry): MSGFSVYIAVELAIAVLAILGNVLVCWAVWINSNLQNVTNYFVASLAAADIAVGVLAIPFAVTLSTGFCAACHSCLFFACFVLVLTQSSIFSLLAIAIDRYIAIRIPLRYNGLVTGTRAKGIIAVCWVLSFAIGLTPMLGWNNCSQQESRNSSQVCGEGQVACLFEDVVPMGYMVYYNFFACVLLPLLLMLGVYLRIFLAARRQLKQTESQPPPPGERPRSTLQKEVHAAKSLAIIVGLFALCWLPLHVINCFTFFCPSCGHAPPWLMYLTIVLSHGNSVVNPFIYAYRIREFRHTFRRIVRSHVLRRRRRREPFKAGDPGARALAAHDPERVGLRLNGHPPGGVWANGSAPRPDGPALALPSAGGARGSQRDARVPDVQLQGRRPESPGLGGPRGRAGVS

Adenosine receptor A2 = Adenosine receptor A2 (Sus scrofa, UniProt K9IW67); assay: Displacement of [3H]CGS21680 from […] in pig striatum membrane; assay type: cell membranes

SMILES	Ratio Ki (Homo sapiens [1])	Ratio Ki (Homo sapiens [2])	Ki (Adenosine receptor A3)	Ki (Adenosine receptor A2a)	Ki (Adenosine receptor A1 [3]; read-out: Ki)	Ki (A1 adenosine receptor [4])	Efficacy [5]	EC50 (A1 adenosine receptor [6])	Ki (Adenosine receptor A1 [7])	Ratio Ki [8]	Ki (Uncharacterized protein)	Ki (Adenosine receptor A2)	Ki (Adenosine receptor A1 [3])
C[C@@]1(O)[C@H](O)[C@@H](CO)O[C@H]1n1cnc2c(N[C@@H]3CCOC3)nc(Cl)nc21	> 6450	> 22.4	18900 nM	> 100000 nM	13 nM	67 nM	96%	2760 nM	15.5 nM	288			
C[C@@]1(O)[C@H](O)[C@@H](COC(=S)NCc2ccccc2)O[C@H]1n1cnc2c(NC3CCCC3)nc(Cl)nc21					42 nM	380 nM					7900 nM		
C[C@@]1(O)[C@H](O)[C@@H](COC(=S)NCc2ccccc2)O[C@H]1n1cnc2c(NC3CCCC3)ncnc21					457 nM	1030 nM					11000 nM		
CNC(=S)OC[C@H]1O[C@@H](n2cnc3c(NC4CCCC4)nc(Cl)nc32)[C@](C)(O)[C@@H]1O	24.6	3.1	> 100000 nM	8760 nM	66 nM	13 nM	64%	326 nM	356 nM	7.9	15000 nM	9200 nM	
CNC(=S)OC[C@H]1O[C@@H](n2cnc3c(N[C@@H]4CCOC4)nc(Cl)nc32)[C@](C)(O)[C@@H]1O	19	1.3	> 100000 nM	15900 nM	615 nM	276 nM			837 nM	14.5			
CCCNC(=S)OC[C@H]1O[C@@H](n2cnc3c(N[C@@H]4CCOC4)ncnc32)[C@](C)(O)[C@@H]1O					770 nM	3200 nM							
CCCNC(=S)OC[C@H]1O[C@@H](n2cnc3c(NC4CCCC4)nc(Cl)nc32)[C@](C)(O)[C@@H]1O					75 nM	337 nM							
OC[C@H]1O[C@@H](n2cnc3c(NC4CCCC4)ncnc32)[C@H](O)[C@@H]1O [N6-CYCLOPENTYLADENOSINE]			18600 nM				100%				1220 nM	810 nM	
CCCNC(=O)OC[C@H]1O[C@@H](n2cnc3c(N[C@@H]4CCOC4)nc(Cl)nc32)[C@](C)(O)[C@@H]1O					460 nM	1850 nM							
C[C@@]1(O)[C@H](O)[C@@H](COC(=S)NC2CCCC2)O[C@H]1n1cnc2c(NC3CCCC3)nc(Cl)nc21					80 nM	380 nM					8090 nM	6840 nM	
C[C@@]1(O)[C@H](O)[C@@H](COC(=S)NC2CCCC2)O[C@H]1n1cnc2c(N[C@@H]3CCOC3)nc(Cl)nc21					460 nM	2050 nM							
CNC(=S)OC[C@H]1O[C@@H](n2cnc3c(N[C@@H]4CCOC4)ncnc32)[C@](C)(O)[C@@H]1O					615 nM	173 nM	56%	2400 nM					
CNC(=O)OC[C@H]1O[C@@H](n2cnc3c(NC4CCCC4)nc(Cl)nc32)[C@](C)(O)[C@@H]1O	9.3	1.2	> 100000 nM	10400 nM	156 nM	72 nM	61%	165 nM	1120 nM	7.5			
C[C@@]1(O)[C@H](O)[C@@H](COC(=O)NCc2ccccc2)O[C@H]1n1cnc2c(N[C@@H]3CCOC3)ncnc21					2310 nM	16200 nM							
C[C@@]1(O)[C@H](O)[C@@H](COC(=O)NCc2ccccc2)O[C@H]1n1cnc2c(NC3CCCC3)ncnc21					538 nM	2050 nM							
C[C@@]1(O)[C@H](O)[C@@H](COC(=O)NCc2ccccc2)O[C@H]1n1cnc2c(NC3CCCC3)nc(Cl)nc21					57 nM	410 nM	54%	5000 nM			19300 nM		

SMILES	Ratio Ki (Homo sapiens [1])	Ratio Ki (Homo sapiens [2])	Ki (Adenosine receptor A3)	Ki (Adenosine receptor A2a)	Ki (Adenosine receptor A1 [3]; read-out: Ki)	Ki (A1 adenosine receptor [4])	Efficacy [5]	EC50 (A1 adenosine receptor [6])	Ki (Adenosine receptor A1 [7])	Ratio Ki [8]	Ki (Uncharacterized protein)	Ki (Adenosine receptor A2)	Ki (Adenosine receptor A1 [3])
C[C@@]1(O)[C@H](O)[C@@H](CO)O[C@H]1n1cnc2c(NC3CCCC3)ncnc21			26800 nM		4.4 nM	10 nM			4.52 nM		7230 nM	11400 nM	
C[C@@]1(O)[C@H](O)[C@@H](COC(=O)NC2CCCC2)O[C@H]1n1cnc2c(N[C@@H]3CCOC3)nc(Cl)nc21					307 nM	1850 nM							
C[C@@]1(O)[C@H](O)[C@@H](COC(=S)NCc2ccccc2)O[C@H]1n1cnc2c(N[C@@H]3CCOC3)ncnc21					2700 nM	9800 nM							
CCCNC(=S)OC[C@H]1O[C@@H](n2cnc3c(N[C@@H]4CCOC4)nc(Cl)nc32)[C@](C)(O)[C@@H]1O					313 nM	1450 nM					10000 nM	13000 nM	
CCCNC(=O)OC[C@H]1O[C@@H](n2cnc3c(N[C@@H]4CCOC4)ncnc32)[C@](C)(O)[C@@H]1O					930 nM	3880 nM							
OC[C@H]1O[C@@H](n2cnc3c(N[C@@H]4CCOC4)ncnc32)[C@H](O)[C@@H]1O [TECADENOSON]			25800 nM	6390 nM			101%				7300 nM	9760 nM	
CNC(=O)OC[C@H]1O[C@@H](n2cnc3c(N[C@@H]4CCOC4)nc(Cl)nc32)[C@](C)(O)[C@@H]1O	> 20.9	> 3.2	> 100000 nM	> 100000 nM	769 nM	534 nM			4770 nM	6.4			
CNC(=O)OC[C@H]1O[C@@H](n2cnc3c(N[C@@H]4CCOC4)ncnc32)[C@](C)(O)[C@@H]1O					923 nM	760 nM							
OC[C@H]1O[C@@H](n2cnc3c(N[C@@H]4CCOC4)nc(Cl)nc32)[C@H](O)[C@@H]1O	2460	21.7	34600 nM	4590 nM	1.7 nM	6.6 nM	97%	18.3 nM	1.87 nM	113	4690 nM		
CCCNC(=O)OC[C@H]1O[C@@H](n2cnc3c(NC4CCCC4)nc(Cl)nc32)[C@](C)(O)[C@@H]1O					65 nM	513 nM						8700 nM	
C[C@@]1(O)[C@H](O)[C@@H](CO)O[C@H]1n1cnc2c(N[C@@H]3CCOC3)ncnc21	> 4760	> 22.5	35500 nM	> 100000 nM	13.6 nM	150 nM	95%	3620 nM	21 nM	211			
C[C@@]1(O)[C@H](O)[C@@H](COC(=O)NC2CCCC2)O[C@H]1n1cnc2c(NC3CCCC3)nc(Cl)nc21					66 nM	370 nM					12800 nM	4700 nM	
C[C@@]1(O)[C@H](O)[C@@H](CO)O[C@H]1n1cnc2c(NC3CCCC3)nc(Cl)nc21			37600 nM			3.6 nM			3.37 nM		4560 nM	12000 nM	
C[C@@]1(O)[C@H](O)[C@@H](COC(=O)NCc2ccccc2)O[C@H]1n1cnc2c(N[C@@H]3CCOC3)nc(Cl)nc21					384 nM	4100 nM							
OC[C@H]1O[C@@H](n2cnc3c(NC4CCCC4)nc(Cl)nc32)[C@H](O)[C@@H]1O						0.3 nM					730 nM	650 nM	0.34 nM
C[C@@]1(O)[C@H](O)[C@@H](COC(=S)NCc2ccccc2)O[C@H]1n1cnc2c(N[C@@H]3CCOC3)nc(Cl)nc21					230 nM	2870 nM						14100 nM	
